This assay relates to response of the rabbit colon in vitro to bradykinin. Kind of assay: Inhibition of the bradykinin response of rabbit colon mucosa in vitro (transepithelial potential difference and short circuit current, Ussing chambers). The following applies: Oryctolagus cuniculus, 0.5 h, incubated 30 min prior to bradykinin (1×10^-6 M), read-out: ED50 (the source's name). In kind it is cell-based, New Zealand white male rabbits. An excerpt: Measurement of transepithelial potential difference (PD) and short circuit current (Isc)
New Zealand white male rabbits (2-3 kg) were fed standard rabbit chow and water ad lib. Rabbits were killed by cervical dislocation, and the distal colon or ileum removed rapidly, opened along its mesenteric border, and rinsed clean of luminal contents with cold Ringer's solution containing, in mmol/liter NaCl, 114; KCl, 5; NaH2 PO4, 0.3; CaCl2, 1.25; MgCl2, 1.1; and NaHCO3, 25 (standard Ringer). Before use, tissues were maintained in ice-cold Ringer with 95% O2 /5% CO2. The standard ringer solution also contained captopril (5×10^-6 M) to inhibit bradykinin metabolism.
The serosa and two muscle layers were removed by placing a 10 cm strip of ileum, serosa up, on a Lucite plate, making a transverse cut through both external muscle layers with a razor blade, and stripping off the layers longitudinally.
Transepithelial electrical potential difference (PD), total conductance (Gt), and short circuit current (Isc) were measured as described by M. Field et al (A M J. Physiol, 220 1388-1396). Six pieces of mucosa were mounted in Ussing chambers (1.12 cm^2 cross-sectional area), and bathed with 8 ml of standard Ringer on each side. Solutions were circulated by gas lift and maintained at 37° C. in water jacketed reservoirs. […]

pIC50: −log10 of the molar value.

As to `CNC1=NN(c2cccc(C(F)(F)F)c2)CC1` [R^1 CH3, 3-methylamino-1-(3-trifluoromethylphenyl)-2-pyrazoline], the pIC50 is 4.30.

Take `NC1=NN(c2cccc(C(F)(F)F)c2)CC1` [R^1 H, 3-amino-1-(3-trifluoromethylphenyl)-2-pyrazoline]: the pIC50 is 3.70.

For the origin of these results see patent publication US4448783A, “Substituted pyrazoline, and its use in treatment of gastro-intestinal disturbances” (Burroughs Wellcome Co., priority 1982, dated 1984).
